Assays:
BIRC3 = target: T1, BIRC3 (Homo sapiens, UniProt Q13489); test: isoTOP-ABPP and TMT-ABPP cysteine engagement, BIRC3; format: binding
T1 construct: endogenous in cells; host or cells: primary human T cells
Protocol: Activated or expanded T cells were re-suspended in RPMI media supplemented with 10% FBS, L-glutamine (2 mM), penicillin (100 U/mL), and streptomycin (100 μg/mL) at 2×10^6 cells/mL. The compounds were added to cells as 1000×DMSO stocks and mixed well with the media by pipetting up and down after addition. The cells were kept at 37° C. in 5% CO2 containing incubators for 3 h (or otherwise specified times), then pelleted by centrifugation (524 g, 5 min, 4° C.), washed with cold PBS (10 mL) and transferred to Eppendorf tubes (1 mL PBS). The cells were pelleted again (524 g, 5 min, 4° C.), flash-frozen, and kept at −80° C. until further analysis.
Activated or expanded primary human T cells were re-suspended in RPMI (1×10^6 cells/mL) containing 10% fetal bovine serum (FBS), penicillin (100 U/mL), streptomycin ([…]), and L-glutamine (2 mM). […] The resulting proteomes were analyzed by competitive isotopic Tandem Orthogonal Proteolysis Activity-Based Protein Profiling (isoTOP-ABPP). […]
The heavy/light isoTOP-ABPP ratios (R values) for each unique peptide (DMSO/compound treated) were quantified with in-house CIMAGE software (Weerapana et al., 2010) using default parameters (3 MS1 acquisitions per peak and signal to noise threshold set to 2.5). Site-specific engagement of cysteine residues was assessed by blockade of IA-alkyne probe labeling. […]

NuRD complex member mRNA = test: mRNA expression of NuRD complex members (RNAseq); format: cell-based, human
Protocol: FIG. 7B is a scatter plot representation of protein abundance changes caused by BPK-25 (10 μM, 24 h) in two independent replicate experiments, with decreases in NuRD complex components highlighted in red. FIG. 7C is a heatmap of top proteins with decreased abundance in BPK-25-treated T cells showing that the subset of these proteins in the NuRD complex (asterisks) were largely unaltered by other active compounds and blocked in their degradation by co-treatment with the proteasome inhibitor MG132. […] FIG. 7E is a bar graph […] showing time-dependent reductions in NuRD complex members in human T cells treated with BPK-25 (10 μM). Left, representative western blots. Right, quantification of changes in protein. […] FIG. 7G is a heat map showing the changes in cysteine reactivity for NuRD complex members in human T cells treated with BPK-25 and other active compounds. […]
RNA quality was assessed using TapeStation 4200 and RNA-Seq libraries were prepared using the TruSeq stranded mRNA Sample Preparation Kit v2 according to Illumina protocols. Multiplexed libraries were validated using TapeStation 4200, normalized, pooled and quantified by qPCR for sequencing. […]
Sequenced reads were quality-tested using FASTQC Andrews S. (2010). […] Mapping was carried out using default parameters (up to 10 mismatches per read, and up to 9 multi-mapping locations per read). […]

T1 sequence (Q13489 whole entry): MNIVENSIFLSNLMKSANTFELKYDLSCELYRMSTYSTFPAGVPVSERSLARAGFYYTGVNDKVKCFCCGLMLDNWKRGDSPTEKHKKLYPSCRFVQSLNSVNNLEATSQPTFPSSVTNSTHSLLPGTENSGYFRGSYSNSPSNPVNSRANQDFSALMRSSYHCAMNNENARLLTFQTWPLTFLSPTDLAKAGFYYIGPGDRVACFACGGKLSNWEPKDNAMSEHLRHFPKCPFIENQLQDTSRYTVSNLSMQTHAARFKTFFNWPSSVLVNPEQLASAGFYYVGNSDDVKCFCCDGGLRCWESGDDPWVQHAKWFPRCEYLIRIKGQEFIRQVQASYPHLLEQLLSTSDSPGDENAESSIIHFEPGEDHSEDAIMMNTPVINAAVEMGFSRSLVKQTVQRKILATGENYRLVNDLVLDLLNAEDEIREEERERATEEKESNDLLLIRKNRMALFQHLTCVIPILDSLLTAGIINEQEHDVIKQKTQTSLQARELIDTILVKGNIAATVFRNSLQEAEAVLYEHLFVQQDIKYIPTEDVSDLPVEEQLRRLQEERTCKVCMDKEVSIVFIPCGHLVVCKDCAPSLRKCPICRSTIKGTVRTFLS

| Structure (SMILES) | engagement of C28 of BIRC3 (BIRC3) | mRNA expression for NuRD complex members (NuRD complex member mRNA) |
| --- | --- | --- |
| O=C(CCl)N1CCN(S(=O)(=O)c2ccc(-c3ccncc3)cc2)CC1 [EV-3] | unique target |  |
| C=CC(=O)N(Cc1cccc(Cl)n1)c1ccc(C(=O)Nc2ccccc2)nc1 [BPK-25] |  | not accompanied by corresponding changes in mRNA expression |

Source: patent US20240131032A1, “AN ACTIVITY-GUIDED MAP OF ELECTROPHILE-CYSTEINE INTERACTIONS IN PRIMARY HUMAN IMMUNE CELLS” (The Scripps Research Institute, priority 2019, published 2024)
